Converted amounts (≈) assume the structure as drawn.
Columns and labels:
[1] = biological target: GLP-1 Receptor (Homo sapiens, UniProt P43220); assay: GLP-1R agonist cAMP stimulation assay (HEK293/GLP1R/CRE-LUC cells, Cisbio cAMP dynamic 2 kit); format: cell-based
How it was run: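 cAMP was measured by HTRF (d2/cryptate, 1 h RT, 665 and 615 nm). Beforehand, compounds in half-log series were incubated 30 min at 37 °C with GLP-1R/CRE-Luc HEK293 cells (1000 per well) in IBMX (0.5 mM)-containing DPBS/BSA. Activity scaled between vehicle and maximal control.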

[2] = test system: Caco-2 cell monolayers; assay: Caco-2 permeability / efflux study; format: in vitro ADME; conditions: 10 μM, 2 hours
Method: (§1) Incubations with Caco-2 cell monolayers were performed in duplicate in a 96-well Transwell plate. Transport buffer solution (HBSS, 10 mM HEPES, pH 7.4, with 0.5% BSA) containing test article (10 μM), and either the control compounds metoprolol (10 μM), cimetidine (10 μM) and erythromycin (10 μM), was added to appropriate donor wells of the apical or basolateral plate. The transport buffer with DMSO was added to appropriate wells of receiver wells. Following incubation at 37° C. for 2 hours, the cell plates were removed and 50 μL samples from both apical and basolateral sides were transferred into new 96-well plates. Subsequently, 200 μL of acetonitrile containing internal standard was added to all samples to precipitate protein prior to analysis by UPLC-MS/MS. Lucifer yellow was used as a marker to confirm the integrity of the cell monolayers after 2 hours incubation.

[3] = FaSSIF solubility; format: physicochemical; conditions: FaSSIF buffer; for solubility at 4 h: 25 °C, fassif, thermodynamic from solid
Method: Stock solution of test article and control compound (chlorpromazine, astemizole, and phenytoin) were prepared in DMSO at 10 mM. 50 μL each of stock solutions were dried down, followed by reconstitution to 1 mM with FaSSIF buffer in the well. The incubation plate was shaked at 25° C., 1,100 rpm for 4 hours. And then, the samples were filtered by using the vacuum manifold. 10 μL aliquots from each well was transferred to a new 96-well plate and adjust the volume to 80 μL with blank buffer. Using a mixture of H2O and acetonitrile containing internal standard (1:1) to dilute the sample 100-fold, 500-fold and 2,500-fold. The samples are evaluated by LC/MS/MS analysis. All compounds were tested in singlet.

[4] = Caco-2 permeability / efflux study; format: in vitro ADME; conditions: human; for Papp at 2 h, 10 μM: Caco-2, pH 7.4, 10 μM, 37° C., pH 7.4, 0.5% BSA, read-out: Caco-2 Perm; for efflux ratio at 2 h, 10 μM: Caco-2, pH 7.4, Caco-2 efflux ratio
Method: as §1

[5] = Rat IV/PO PK study, Method A; format: in vivo, male Sprague Dawley (SD) rats; conditions: for AUC (ng · h/mL)_free form/dose / AUC / Cmax: PO; for AUC (ng · h/mL)_free form/dose: 5 mpk, free form; for half-life / bioavailability / AUC / Cmax: male, Sprague Dawley, plasma; for half-life: 1 mg/kg, elimination half life (IV); for half-life / bioavailability: Method A; for bioavailability: PO vs IV, read-out: Bioavailablility (% F); for AUC / Cmax: *obtained under method 3A
Method: Pharmacokinetics (PK) study was conducted on male Sprague Dawley (SD) rats by two delivery routes intravenous (IV) and/or oral gavage (PO). Rats in IV route (n=3) were free access to food and water. Rats in PO route (n=3) were fasted overnight and fed at 4 hrs post dosing. Test article was formulated in solution (10% solutol HS 15 in saline) for IV route and solution or suspension (10% solutol HS 15 in saline/water) for PO route, respectively. On the day of experiment, test article was administered via vein (e.g. foot dorsal vein) injection (commonly at 1 mg/kg and 5 mL/kg) for IV route or via oral gavage (commonly at 2 or 5 mg/kg and 5 mL/kg) for PO route, respectively. Blood samples were collected via serial bleeding at ˜8 time points from 0.083 to 24 hrs post dose. Approximate 150 μL of blood/time point was collected into K2EDTA tube via tail vein or jugular vein. Blood samples were put on wet ice and centrifuged to obtain plasma samples and plasma samples were submitted to LC-MS/MS for sample analysis. Pharmacokinetics parameters, including elimination half life (t1/2) (IV), area under the curve (AUC) and oral bioavailability (F %), etc. were calculated by non-compartmental model using WinNonlin.

[6] = Rat PO PK study, Method B; format: in vivo, male Sprague Dawley (SD) rats; conditions: for rat PK exposure compared with C-5 and C-6: 5 to 100 mg/kg; for rat PK dose proportionality of exposure: free form, same formulation; for AUC / Cmax: male, Sprague Dawley, plasma
Method: Pharmacokinetics (PK) study was conducted on male Sprague Dawley (SD) rats by oral gavage (PO). Rats in PO route (n=3) were free access to food and water. […] On the day of experiment, test article was administered via oral gavage (commonly at 10, 30, or 100 mg/kg, with dose volume as 10 mL/kg). Blood samples were collected via serial bleeding at ˜8 time points from 0.25 to 24 hrs post dose. Approximate 150 μL of blood/time point was collected into KzEDTA tube via tail vein or jugular vein. Blood samples were put on wet ice and centrifuged to obtain plasma samples and plasma samples were submitted to LC-MS/MS for sample analysis. Pharmiacokinetics parameters, including Cmax, and area under the curve (AUC), etc. were calculated by non-compartmental model using WinNonlin.

[7] = Table 3, HEK293/GLP1R/CRE-LUC cells, 30 min
[8] = 30 mg/kg, 20% solutol HS 15 in water
[9] = 100 mg/kg, 20% solutol HS 15 in water

Chain of GLP-1 Receptor (P43220 24-463, species assumed): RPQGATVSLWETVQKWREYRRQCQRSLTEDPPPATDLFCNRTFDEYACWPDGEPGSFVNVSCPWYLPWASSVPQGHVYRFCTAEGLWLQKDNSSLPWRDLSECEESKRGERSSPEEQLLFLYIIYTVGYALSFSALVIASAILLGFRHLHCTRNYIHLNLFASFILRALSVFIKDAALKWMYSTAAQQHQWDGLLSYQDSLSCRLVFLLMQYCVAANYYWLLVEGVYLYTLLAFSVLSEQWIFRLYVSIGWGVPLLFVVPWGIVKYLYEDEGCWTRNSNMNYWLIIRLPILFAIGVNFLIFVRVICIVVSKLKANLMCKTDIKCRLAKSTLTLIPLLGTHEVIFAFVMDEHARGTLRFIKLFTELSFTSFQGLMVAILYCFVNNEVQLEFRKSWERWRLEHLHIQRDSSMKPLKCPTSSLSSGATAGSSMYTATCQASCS

Row | SMILES | EC50 [1, 7] | EC50 ([1]; Table 4) | Papp at 2 h, 10 μM [4] | efflux ratio at 2 h, 10 μM [4] | solubility at 4 h [3] | AUC (ng · h/mL)_free form/dose [5] | half-life [5] | bioavailability [5] | AUC ([5]; 5 mg/kg) | Cmax ([5]; 5 mg/kg) | rat PK exposure compared with C-5 and C-6 [6] | rat PK dose proportionality of exposure [6] | AUC ([6]; 30 mg/kg, 10% solutol HS 15) | Cmax ([6]; 30 mg/kg, 10% solutol HS 15) | AUC ([6]; 100 mg/kg, 10% solutol HS 15) | Cmax ([6]; 100 mg/kg, 10% solutol HS 15) | also measured
1 | Cc1cc(-n2nc3c(c2-n2ccn(-c4ccc(S5(=O)=NCCC5)cc4)c2=O)[C@H](C)N(C(=O)c2cc4cc(C5CCOCC5)ccc4n2[C@@]2(c4noc(=O)[nH]4)C[C@@H]2C)CC3)cc(C)c1F (single isomer, unassigned) [Compound 143] | 0.019 nM | 0.019 nM |  |  |  |  |  |  |  |  |  |  |  |  |  |  | Caco-2 Perm ([2]; 37° C., pH 7.4, 0.5% BSA): 1.2 nm/s; Efflux ([2]; Caco-2 efflux ratio): 99.3; Solubility (FaSSIF, μM) ([3]; 25° C., 4 hours): 4.98 µM (≈ 4.41 µg/mL)
2 | CCS(=O)(=NC)c1ccc(-n2ccn(-c3c4c(nn3-c3cc(C)c(F)c(C)c3)CCN(C(=O)c3cc5cc([C@H]6CCOC(C)(C)C6)ccc5n3[C@@]3(c5noc(=O)[nH]5)C[C@@H]3C)[C@H]4C)c2=O)c(F)c1 (single isomer, unassigned) [Compound 164] | 0.024 nM | 0.024 nM | 0.62 ×10⁻⁶ cm/s | 5.5 | 8.9 µM (≈ 8.31 µg/mL) | 6,094/5 mpk ng · h/mL | 144 min | 29.4% | 9540 ng·h/mL | 1880 ng/mL | higher exposure than C-5 and C-6 | good rat PK dose proportionality from 5 to 100 mg/kg |  |  |  |  | AUC [6, 8]: 66200 ng·h/mL; Cmax [6, 8]: 5400 ng/mL; AUC [6, 9]: 173000 ng·h/mL; Cmax [6, 9]: 11200 ng/mL
3 | CN=S(=O)(c1ccc(-n2ccn(-c3c4c(nn3-c3cc(C)c(F)c(C)c3)CCN(C(=O)c3cc5cc([C@H]6CCOC(C)(C)C6)ccc5n3[C@@]3(c5noc(=O)[nH]5)C[C@@H]3C)[C@H]4C)c2=O)c(F)c1)C1CC1 (single isomer, unassigned) [Compound 180] | 0.034 nM | 0.03 nM | 0.61 ×10⁻⁶ cm/s | 5.4 | 30 µM (≈ 28.4 µg/mL) | 4,954/5 mpk ng · h/mL | 180 min | 28% | 6100 ng·h/mL | 1790 ng/mL | higher exposure than C-5 and C-6 | good rat PK dose proportionality from 5 to 100 mg/kg | 97000 ng·h/mL | 8340 ng/mL | 167000 ng·h/mL | 13300 ng/mL | 
4 | CN=S(=O)(c1ccc(-n2ccn(-c3c4c(nn3-c3cc(C)c(F)c(C)c3)CCN(C(=O)c3cc5cc([C@H]6CCOC(C)(C)C6)ccc5n3[C@@]3(c5noc(=O)[nH]5)C[C@@H]3C)[C@H]4C)c2=O)c(F)c1C)C1CC1 (single isomer, unassigned) [Compound 195] | 0.018 nM | 0.018 nM | 0.22 ×10⁻⁶ cm/s | 12 | 7.2 µM (≈ 6.91 µg/mL) | 9,545/5 mpk ng · h/mL | 258 min | 14% | 5000 ng·h/mL | 774 ng/mL | higher exposure than C-5 and C-6 | good rat PK dose proportionality from 5 to 100 mg/kg | 51100 ng·h/mL | 3910 ng/mL | 102000 ng·h/mL | 7690 ng/mL | 
5 | CN=S(=O)(c1ccc(-n2ccn(-c3c4c(nn3-c3cc(C)c(F)c(C)c3)CCN(C(=O)c3cc5cc([C@H]6CCOC(C)(C)C6)ccc5n3[C@@]3(c5noc(=O)[nH]5)C[C@@H]3C)[C@H]4C)c2=O)c(F)c1NC)C1CC1 (single isomer, unassigned) [Compound 238] | 0.11 nM | 0.11 nM | 0.19 ×10⁻⁶ cm/s | 9.8 | 26 µM (≈ 25.4 µg/mL) | 4,997/5 mpk ng · h/mL | 287 min | 25.5% | 7430 ng·h/mL | 1060 ng/mL | higher exposure than C-5 and C-6 | good rat PK dose proportionality from 5 to 100 mg/kg |  |  |  |  | AUC [6, 8]: 67500 ng·h/mL; Cmax [6, 8]: 4710 ng/mL; AUC [6, 9]: 124000 ng·h/mL; Cmax [6, 9]: 8680 ng/mL
6 | Cc1cc(-n2nc3c(c2-n2ccn(-c4ccc5c(cnn5C)c4F)c2=O)[C@H](C)N(C(=O)c2cc4cc([C@H]5CCOC(C)(C)C5)ccc4n2[C@@]2(c4noc(=O)[nH]4)C[C@@H]2C)CC3)cc(C)c1F [Compound C-5, reference compound] |  |  | 0.21 ×10⁻⁶ cm/s |  | 0.4 µM (≈ 0.353 µg/mL) |  | 486 min | 36% |  |  |  | plateaued at 10 mg/kg | 13000 ng·h/mL | 1010 ng/mL |  |  | AUC ([5]; 2 mg/kg): 4400 ng·h/mL; Cmax ([5]; 2 mg/kg): 573 ng/mL; AUC ([6]; 10 mg/kg, 10% solutol HS 15): 14500 ng·h/mL; Cmax ([6]; 10 mg/kg, 10% solutol HS 15): 1250 ng/mL
7 | Cc1cc(-n2nc3c(c2-n2ccn(-c4ccc5c(cnn5C)c4F)c2=O)[C@H](C)N(C(=O)c2cc4cc([C@H]5CCOC(C)(C)C5)ccn4c2C2(c4noc(=O)[nH]4)CC2)CC3)cc(C2CC2)c1F [Compound C-6, reference compound] |  | 0.0675 nM | 0.16 ×10⁻⁶ cm/s | 26 | 4.5 µM (≈ 4.03 µg/mL) | 4,276/5 mpk ng · h/mL | 186 min | 47% | 4280 ng·h/mL | 744 ng/mL |  |  | 58800 ng·h/mL | 7540 ng/mL | 86000 ng·h/mL | 7480 ng/mL | 

From US12291529B2, “Heterocyclic GLP-1 agonists” (Gasherbrum Bio, Inc., priority 2023, dated 2025)
